Source: PMC3340383, “Synthesis and Evaluation of a Series of 2-Substituted-5-Thiopropylpiperazine (Piperidine)-1,3,4-Oxadiazoles Derivatives as Atypical Antipsychotics” (PLoS ONE, 2012)

System: apomorphine-induced climbing behavior in mice
Experiment: Apomorphine-induced climbing
Format: in vivo
Details: Mus musculus, po, read-out: Apomorphine-induced climbing ED50 (A)
Description: . […] . Animals were then challenged at 30 minutes post-injection with 1.0 mg/kg of the apomorphine in 0.9% NaCl+0.1% ascorbic acid, placed in cylindrical wire cages (12 cm in diameter, 14 cm in height), and observed for climbing behavior at 10, 20 and 30 min post dose. The climbing behaviour was scored as follows: 3–4 paws on the cage floor = 0 score; 2 and 3 paws on the cage = 1 score; 4 paws on the cage = 2 score.

## Cc1nc2n(c(=O)c1CCN1CCC(c3noc4cc(F)ccc34)CC1)CCCC2 [risperidone]
  ED50: 0.02 mg/kg
